Data on 1 compound can be found in BindingDB's records for patent US11174245 (Boehringer Ingelheim International, 2021).

The target of the test is Epidermal growth factor receptor [695-1022,T790M,C797S,L858R] (Homo sapiens, UniProt P00533, C797S/L858R/T790M). Put plainly: Biochemical EGFR Inhibition Assays ([…]). Further details: 695-1022.
Sequence of Epidermal growth factor receptor [695-1022,T790M,C797S,L858R] (P00533 695-1022 T790M/C797S/L858R): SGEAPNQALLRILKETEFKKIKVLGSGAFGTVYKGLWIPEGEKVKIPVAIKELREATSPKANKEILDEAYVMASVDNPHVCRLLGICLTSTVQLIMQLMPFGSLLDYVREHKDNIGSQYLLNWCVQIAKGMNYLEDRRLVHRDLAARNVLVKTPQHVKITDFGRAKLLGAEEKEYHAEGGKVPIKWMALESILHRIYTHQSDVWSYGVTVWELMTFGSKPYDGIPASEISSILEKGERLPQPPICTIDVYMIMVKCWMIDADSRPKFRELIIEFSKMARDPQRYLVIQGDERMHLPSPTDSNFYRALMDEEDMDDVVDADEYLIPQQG

Experimental: 5 μL of EGFR enzyme form in assay buffer (50 mM HEPES pH 7.3, 10 mM MgCl2, 1 mM EGTA, 0.01% Tween 20, 2 mM DTT) are dispensed into columns 1-23, than 5 μL of ATP and ULight-poly-GT substrate (PerkinElmer; TRF0100-M) mix in assay buffer is added to all wells (final assay concentration of the ULight-poly-GT substrate 200 nM). Each of the different EGFR enzyme form assays is available at high ATP levels (final assay concentration 100 μM). After 90 minutes incubation at room temperature 5 μL EDTA (final assay concentration 50 mM) and LANCE Eu-anti-P-Tyr (PT66) antibody (PerkinElmer, AD0069) (final assay concentration 6 nM) mix are added to stop the reaction and start the binding of the antibody. […] Each plate contains 16 wells of a negative control (diluted DMSO instead of test compound; w EGFR enzyme form; column 23) and 16 wells of a positive control (diluted DMSO instead of test compound; w/o EGFR enzyme form; column 24). Negative and positive control values are used for normalization and IC50 values are calculated and analysed using a 4 parametric logistic model.

As a reminder, the IC50 is the point on the concentration scale where inhibition reaches its midpoint. Lower therefore signals inhibition by little substance. Compound `COc1ccncc1-c1cc(C(=O)/N=c2\[nH]c3cc(C4CCN(C(C)=O)CC4)ccc3n2CC(C)(C)O)ccn1` [US11174245, # I-031] came in with an IC50 of 3 nM.
